pEC50, pIC50: −log10 of the molar value. Like-named read-outs stand apart in the source and are kept apart here.

One test has as its target T1, O-GlcNAcase (UniProt Q8VIJ5).
T1 sequence (Q8VIJ5 1-916): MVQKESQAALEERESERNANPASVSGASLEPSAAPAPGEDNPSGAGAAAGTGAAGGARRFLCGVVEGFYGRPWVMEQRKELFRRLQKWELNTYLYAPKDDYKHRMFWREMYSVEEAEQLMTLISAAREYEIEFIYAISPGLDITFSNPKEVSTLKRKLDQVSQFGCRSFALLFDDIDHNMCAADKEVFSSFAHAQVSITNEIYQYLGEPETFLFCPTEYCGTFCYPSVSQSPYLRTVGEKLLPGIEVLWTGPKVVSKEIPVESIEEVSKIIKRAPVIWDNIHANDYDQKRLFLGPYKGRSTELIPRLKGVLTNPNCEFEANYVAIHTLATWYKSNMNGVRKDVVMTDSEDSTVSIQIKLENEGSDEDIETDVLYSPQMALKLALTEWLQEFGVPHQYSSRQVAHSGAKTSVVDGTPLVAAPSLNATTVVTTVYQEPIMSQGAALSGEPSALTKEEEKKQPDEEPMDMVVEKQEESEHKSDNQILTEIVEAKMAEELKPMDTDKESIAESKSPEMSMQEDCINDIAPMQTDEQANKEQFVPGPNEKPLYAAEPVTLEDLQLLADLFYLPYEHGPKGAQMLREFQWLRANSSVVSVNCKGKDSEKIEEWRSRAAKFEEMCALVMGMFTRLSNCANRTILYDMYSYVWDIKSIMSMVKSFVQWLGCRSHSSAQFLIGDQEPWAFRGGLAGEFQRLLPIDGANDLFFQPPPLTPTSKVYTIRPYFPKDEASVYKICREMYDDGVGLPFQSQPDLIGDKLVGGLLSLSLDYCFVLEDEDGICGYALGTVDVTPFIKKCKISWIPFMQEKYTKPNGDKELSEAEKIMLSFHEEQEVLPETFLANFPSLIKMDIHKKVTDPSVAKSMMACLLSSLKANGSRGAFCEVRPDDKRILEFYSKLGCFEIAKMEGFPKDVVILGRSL
The format is cell-based. An excerpt:
Assay for the Determination of Cellular Activity for Compounds that Inhibit O-GlcNAcase Activity
Inhibition of O-GlcNAcase, which removes O-GlcNAc from cellular proteins, results in an increase in the level of O-GlcNAcylated proteins in cells. An increase in the O-GlcNAcylation of cellular proteins can be measured by an antibody, such as CTD110.6, that binds O-GlcNAcylated proteins. The amount of O-GlcNAcylated protein can be determined by the enzyme linked immunoabsorbant assay (ELISA) technique.
Cell lines, such as rat B35, rat PC-12 and human SH-SY5Y cells, expressing endogenous levels of O-GlcNAcase, could be utilized. Cells were plated in 96-well plates at a density of approximately 10,000 cells/well. Compounds to be tested were dissolved in DMSO as 10 mM stock solution, and then diluted first with DMSO and then culture media using the Bravo workstation. Cells were treated with diluted compounds for approximately 16 hours. […] To prepare a cell lysate, the media from compound treated cells were removed, and the cells were washed once with Dulbecco's phosphate buffered saline (DPBS) and then lysed for 30 minutes in 100 μl/well of ice cold RIPA buffer containing a protease inhibitor cocktail.
The ELISA portion of the assay was performed in EIA/RIA plates that were coated overnight at 4 C with 80 μl/well of cell lysate. The following day the wells were washed 6 times with 200 μl of wash buffer (0.05% Tween20 in DPBS). The wells were blocked with 200 μl blocking buffer (1% BSA, 0.05% Tween20 in DPBS) for 1 h at room temperature. Each well was then washed 6 times with 200 μl of wash buffer. The anti-O-GlcNAc antibody CTD110.6 (Covance, Princeton, N.J.) was added at 100 μl/well at a concentration of 10 μg/ml. The plates were incubated for 1 h at room temperature. The wells were then washed 6 times with 200 μl/well of wash buffer. To detect the amount of CTD110.6 bound to the cell lysate, alkaline phosphatase conjugated goat anti-mouse IgM (diluted 1:500 in blocking buffer) was added at 100 μl/well and incubated for 45 min at room temperature. Each well was then washed 6 times with 200 μl/well of wash buffer. PNPP tablets dissolved in diethanolamine substrate buffer and 100 μl/well were added as detection reagent.
The amount of O-GlcNAcylated protein, as detected by the ELISA assay, was plotted for each concentration of test compound using standard curve fitting algorithms for sigmoidal dose response curves. The values for a four parameter logistic curve fit of the data were determined, with the inflection point of the curve being the potency value for the test compound.

In test [1] the target is T2, His-Tagged hOGA (human O-GlcNAcase) (Homo sapiens, UniProt O60502).
T2 sequence (O60502 1-916): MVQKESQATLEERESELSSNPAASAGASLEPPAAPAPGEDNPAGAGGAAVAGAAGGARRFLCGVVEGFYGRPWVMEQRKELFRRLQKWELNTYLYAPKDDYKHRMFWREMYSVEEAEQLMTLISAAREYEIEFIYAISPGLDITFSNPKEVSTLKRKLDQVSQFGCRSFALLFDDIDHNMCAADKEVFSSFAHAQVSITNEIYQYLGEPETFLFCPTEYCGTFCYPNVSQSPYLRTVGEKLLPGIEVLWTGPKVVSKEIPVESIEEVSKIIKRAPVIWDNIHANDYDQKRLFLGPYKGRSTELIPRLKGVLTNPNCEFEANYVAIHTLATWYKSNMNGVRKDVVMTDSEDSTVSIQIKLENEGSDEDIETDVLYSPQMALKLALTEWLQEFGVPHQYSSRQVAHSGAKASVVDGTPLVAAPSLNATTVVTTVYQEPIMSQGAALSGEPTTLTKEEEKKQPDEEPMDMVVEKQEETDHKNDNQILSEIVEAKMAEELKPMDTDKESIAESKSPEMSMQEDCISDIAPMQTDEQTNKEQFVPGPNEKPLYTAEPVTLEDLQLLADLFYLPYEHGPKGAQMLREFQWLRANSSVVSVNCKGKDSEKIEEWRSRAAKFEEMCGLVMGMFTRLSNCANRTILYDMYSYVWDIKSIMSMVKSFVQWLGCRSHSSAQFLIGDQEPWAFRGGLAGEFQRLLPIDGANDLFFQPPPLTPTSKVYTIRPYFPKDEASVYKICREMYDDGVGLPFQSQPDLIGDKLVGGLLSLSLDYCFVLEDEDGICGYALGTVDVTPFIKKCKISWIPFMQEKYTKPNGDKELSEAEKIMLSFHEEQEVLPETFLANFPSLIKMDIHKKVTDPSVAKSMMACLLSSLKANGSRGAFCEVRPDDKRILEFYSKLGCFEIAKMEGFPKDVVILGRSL
The test is described as follows: biochemical.

Where [2] appears, read: cells expressing endogenous O-GlcNAcase (such as rat B35, rat PC-12, human SH-SY5Y), approximately 16 hours treatment; read-out: OGA cellular inhibition (EC50).
Where [3] appears, read: read-out: OGA enzyme inhibition (IC50).

For `CCNC1=N[C@@H]2[C@@H](O)[C@H](O)[C@@H](Cn3cc(COc4ccc(C(C)O)cc4)nn3)O[C@@H]2S1` (some centres unmarked) [compound 90], at O-GlcNAcase (setting [2]), the pEC50 was less than 6.00. The compound also showed a negative logarithm of the IC50 (pIC50) in test [1] greater than 7.00.
On to `CCNC1=N[C@@H]2[C@@H](O)[C@H](O)[C@@H](Cn3cc(COc4cccc(C#N)c4)nn3)O[C@@H]2S1` [compound 73], for which the negative logarithm of the EC50 (pEC50) at O-GlcNAcase (setting [2]) was 6.00 to 6.30. For the same compound, the pIC50 in test [1] was greater than 7.00.
For `CCNC1=N[C@@H]2[C@@H](O)[C@H](O)[C@@H](Cn3cc(COc4ccc(C(C)(C)C)cc4)nn3)O[C@@H]2S1` [compound 94], the pEC50 on O-GlcNAcase (setting [2]) is 6.30 to 7.00. This compound gave a negative-log IC50 (pIC50) in test [1] of 6.30 to 7.00.
Consider `CCNC1=N[C@@H]2[C@@H](O)[C@H](O)[C@@H](Cn3cc(COc4ccccc4C)nn3)O[C@@H]2S1` [compound 87], for which, on O-GlcNAcase (setting [2]), the pEC50 was 6.00 to 6.30. In addition, the pIC50 in test [1] (setting [3]) was greater than 7.00.
For `CCNC1=N[C@@H]2[C@@H](O)[C@H](O)[C@@H](Cn3cc(CCc4ccccc4)nn3)O[C@@H]2S1` [compound no. 6, (3aR,5R,6S,7R,7aR)-2-(ethylamino)-5-{[4-(2-phenylethyl)-1H-1,2,3-triazol-1-yl]methyl}-5,6,7,7a-tetrahydro-3aH-pyrano[3,2-d][1,3]thiazole-6,7-diol], on O-GlcNAcase (setting [2]), the pEC50 was 6.00 to 6.30. The same compound gave a pIC50 in test [1] greater than 7.00.
On the same counts, the results for `CCNC1=N[C@@H]2[C@@H](O)[C@H](O)[C@@H](Cn3cc(COc4cccc(OC)c4)nn3)O[C@@H]2S1` [compound 80] are 6.30 to 7.00 and greater than 7.00.
Take `CCNC1=N[C@@H]2[C@@H](O)[C@H](O)[C@@H](COC(c3ccccc3)(c3ccccc3)c3ccccc3)O[C@@H]2S1` [compound 43]: the pEC50 on O-GlcNAcase (setting [2]) was less than 6.00. The same compound showed a pIC50 in test [1] of 6.00 to 6.30.
For the compound `CCNC1=N[C@@H]2[C@@H](O)[C@H](O)[C@@H](CF)O[C@@H]2S1` [compound no. 4, (3aR,5S,6S,7R,7aR)-2-(ethylamino)-5-(fluoromethyl)-5,6,7,7a-tetrahydro-3aH-pyrano[3,2-d][1,3]thiazole-6,7-diol], the negative-log EC50 (pEC50) at O-GlcNAcase (read-out: OGA cellular inhibition (EC50); cells expressing endogenous O-GlcNAcase (such as rat B35, rat PC-12, human SH-SY5Y), approximately 16 hours treatment) is 6.30 to 7.00. In test [1], this compound gave a pIC50 greater than 7.00.
Turning to `CCNC1=N[C@@H]2[C@@H](O)[C@H](O)[C@@H](Cn3cc(C(C)(O)c4ccccc4)nn3)O[C@@H]2S1` (some centres unmarked) [compound no. 67, 2-Ethylamino-5-[4-(1-hydroxy-1-phenyl-ethyl)-[1,2,3]triazol-1-ylmethyl]-5,6,7,7a-tetrahydro-3aH-pyrano[3,2-d]thiazole-6,7-diol], at O-GlcNAcase (setting [2]), the pEC50 is greater than 7.00. Further, in test [1], the pIC50 was greater than 7.00.
In the case of `CCNC1=N[C@@H]2[C@@H](O)[C@H](O)[C@@H](Cn3cc(CCCc4ccccc4)nn3)O[C@@H]2S1` [compound no. 30, (3aR,5R,6S,7R,7aR)-2-(ethylamino)-5-{[4-(3-phenylpropyl)-1H-1,2,3-triazol-1-yl]methyl}-5,6,7,7a-tetrahydro-3aH-pyrano[3,2-d][1,3]thiazole-6,7-diol], the pEC50 on O-GlcNAcase (setting [2]) was less than 6.00. Moreover, in test [1], the pIC50 is 6.30 to 7.00.
For `CCNC1=N[C@@H]2[C@@H](O)[C@H](O)[C@@H](Cn3cc(C(=O)OC)nn3)O[C@@H]2S1` [compound no. 10, Methyl 1-{[(3aR,5R,6S,7R,7aR)-2-(ethylamino)-6,7-dihydroxy-5,6,7,7a-tetrahydro-3aH-pyrano[3,2-d][1,3]thiazol-5-yl]methyl}-1H-1,2,3-triazole-4-carboxylate], the pEC50 on O-GlcNAcase (setting [2]) is 6.00 to 6.30. Also, the pIC50 in test [1] (setting [3]) is 6.30 to 7.00.
For the compound `CCNC1=N[C@@H]2[C@@H](O)[C@H](O)[C@@H](Cn3cc(COc4cccc(C(C)O)c4)nn3)O[C@@H]2S1` (some centres unmarked) [compound 76], the negative-log EC50 (pEC50) on O-GlcNAcase (setting [2]) is less than 6.00. The compound further gave a negative logarithm of the IC50 (pIC50) in test [1] greater than 7.00.
In the case of `CCN(C(=O)OC(C)(C)C)C1=N[C@@H]2[C@@H](O)[C@H](O)[C@@H](CO)O[C@@H]2S1` [compound no. 12, Tert-butyl [(3aR,5R,6S,7R,7aR)-6,7-dihydroxy-5-(hydroxymethyl)-5,6,7,7a-tetrahydro-3aH-pyrano[3,2-d][1,3]thiazol-2-yl]ethylcarbamate], on O-GlcNAcase (setting [2]), the pEC50 is greater than 7.00. The compound also showed a pIC50 in test [1] greater than 7.00.
Regarding `CCNC1=N[C@@H]2[C@@H](O)[C@H](O)[C@@H](Cn3cc(COc4cccc(S(C)(=O)=O)c4)nn3)O[C@@H]2S1` [compound 81], on O-GlcNAcase (setting [2]), the negative logarithm of the EC50 (pEC50) is less than 6.00. In test [1], the negative logarithm of the IC50 (pIC50) is greater than 7.00.
`CCNC1=N[C@@H]2[C@@H](O)[C@H](O)[C@@H](Cn3cc(COc4ccccc4)nn3)O[C@@H]2S1` [compound no. 58, (3aR,5R,6S,7R,7aR)-2-(ethylamino)-5-{[4-(phenoxymethyl)-1H-1,2,3-triazol-1-yl]methyl}-5,6,7,7a-tetrahydro-3aH-pyrano[3,2-d][1,3]thiazole-6,7-diol]: the pEC50 on O-GlcNAcase (setting [2]) is 6.00 to 6.30. The pIC50 in test [1] (setting [3]) is greater than 7.00.
As to `CCNC1=N[C@@H]2[C@@H](O)[C@H](O)[C@@H](Cn3cc(Cn4c5ccccc5c5ccccc54)nn3)O[C@@H]2S1` [compound 69], the negative logarithm of the EC50 (pEC50) at O-GlcNAcase (setting [2]) was 6.30 to 7.00. In test [1] (setting [3]), the pIC50 was 6.30 to 7.00.
`CCNC1=N[C@@H]2[C@@H](O)[C@H](O)[C@@H](Cn3cc(COc4ccc(Cl)cc4)nn3)O[C@@H]2S1` [compound 92]: the negative logarithm of the EC50 (pEC50) at O-GlcNAcase (setting [2]) is 6.30 to 7.00. Besides, in test [1] (setting [3]), the negative-log IC50 (pIC50) was greater than 7.00.
With `CCNC1=N[C@@H]2[C@@H](O)[C@H](O)[C@@H](Cn3cc(COc4ccccc4F)nn3)O[C@@H]2S1` [compound 89], the pEC50 on O-GlcNAcase (setting [2]) was 6.30 to 7.00. Besides, the negative-log IC50 (pIC50) in test [1] (setting [3]) is greater than 7.00.
As to `CCNC1=N[C@@H]2[C@@H](O)[C@H](O)[C@@H](C(O)CCc3ccccc3)O[C@@H]2S1` (single isomer, unassigned) [compound no. 53], at O-GlcNAcase (setting [2]), the pEC50 is 6.30 to 7.00. In addition, the negative logarithm of the IC50 (pIC50) in test [1] (setting [3]) was 6.30 to 7.00.

Source of the values: patent US8884023B2, “Pyrano [3,2-D][1,3]thiazole as glycosidase inhibitors” (priority 2011, dated 2014).
